The TGI is the concentration at which net growth stops. The low end stands for more potent growth arrest, the high end for less potent growth arrest. Usually GI50 stands for the concentration giving 50% growth inhibition.

Data on seven compounds can be found in PubChem BioAssay (NCI).

Holding throughout (assay): DTP human tumour cell line panel, 48 h
Experiment [1] has as its system DU-145 prostate.
Experiment [2] relates to HOP-92 NSCLC.
The subject of experiment [3] is IGROV1 ovarian.
In experiment [4] the test system is LOX IMVI melanoma.
Experiment [5] concerns MCF7 breast.
Experiment [6] deals with OVCAR-4 ovarian.
Experiment [7] deals with PC-3 prostate.
The test system of experiment [8] is SF-268 CNS.
Experiment [9] relates to SR leukemia.
In experiment [10] the test system is TK-10 renal.

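Exposure lasted 48 hours, with cells grown in 96-well plates and compounds tested at five concentrations. GI50: concentration for 50% inhibition of growth. At the TGI there is no net growth.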

Regarding `CCNCCC1(CC)C(=O)NC(=O)NC1=O`, the TGI in experiment [1], in [2], in [3], in experiment [4], in [5] and in experiment [6] was > 100 µM throughout. For the same compound, the TGI in experiment [7], in experiment [8], in experiment [9] and in experiment [10] was > 100 µM throughout.

On to `COC(=O)[C@H]1C(=O)[C@@]2(C)[C@H]([C@H](OC(=O)c3ccccc3)[C@]3(O)C[C@H](OC(=O)[C@H](O)[C@@H](NC(=O)c4ccc(F)cc4)c4ccccc4)C(C)=C1C3(C)C)[C@]1(OC(C)=O)CO[C@@H]1C[C@@H]2O`, for which the GI50 in experiment [1] was 0.00708 µM; in experiment [3] it was 0.00478 µM; in [4] it was 0.00974 µM; in [5] it was 0.00354 µM; in experiment [6], 0.633 µM; in experiment [7], 0.0164 µM. The values for the GI50 in experiment [8], in [9] and in [10] were 0.0151 µM, 0.00428 µM and 0.0676 µM, respectively. For the same compound, the TGI is 0.023 µM in experiment [1]; > 14.5 µM in experiment [2]; > 7.29 µM in experiment [3]; > 25 µM in experiment [4]; > 25 µM in experiment [5]; > 25 µM in [6]. For the same compound, the TGI in experiment [7] is > 25 µM; in experiment [8] it was > 25 µM; in experiment [9], 1.69 µM; in experiment [10] it was 3.91 µM.

Consider `Cc1nc2ccccn2c1NC(=O)NNC(=S)Nc1ccc(Br)cc1`, for which the GI50 in experiment [1] is 45.9 µM; in [2], 49.4 µM; in experiment [3], 48.9 µM; in experiment [4] it was 24 µM; in experiment [5], 29.4 µM; in experiment [6], 66.2 µM. Also, the GI50 in [7] is 24.5 µM; in [8], 67.9 µM; in experiment [9] it was 18.9 µM; in experiment [10], 74.1 µM. In addition, the TGI in [1] was > 100 µM; in experiment [2], > 100 µM; in [3], > 100 µM; in experiment [4] it was 67.3 µM; in experiment [5] it was > 100 µM; in experiment [6] it was > 100 µM. Moreover, the TGI in experiment [7] was > 100 µM; in experiment [8], > 100 µM; in [9], 55.6 µM; in [10], > 100 µM.

Turning to `CC(C)CCSC1=CC(=O)c2ccccc2C1=O`, the GI50 in experiment [1] is 12.1 µM; in [2], 1.2 µM; in [3] it was 1.06 µM; in [4], 3.56 µM; in experiment [5], 1.42 µM; in experiment [6] it was 1.57 µM. Also, the GI50 was 1.96 µM in experiment [7], 6.66 µM in experiment [8], 0.0506 µM in experiment [9] and 12.4 µM in experiment [10]. Besides, the TGI in experiment [1] worked out at 25.8 µM; in experiment [2] it was 2.62 µM; in experiment [3], 5 µM; in experiment [4], 15.6 µM; in experiment [5], 3.63 µM; in experiment [6], 3.05 µM. For the same compound, the TGI in [7] is 6.85 µM; in experiment [8], 23.8 µM; in experiment [9], 0.616 µM; in experiment [10], 24.8 µM.

With `O=C1/C=C/[C@@H](O)[C@@H]2C[C@@H](O)C[C@H]2/C=C/CCC[C@H](CCc2ccc(C(F)(F)F)cc2)O1`, the GI50 in experiment [1] is 0.479 µM; in experiment [2], 0.227 µM; in experiment [3], 0.309 µM; in experiment [4] it was 0.161 µM; in experiment [5], 0.197 µM; in [6], 0.198 µM. Further, the GI50 is 0.401 µM in experiment [7], 0.371 µM in [8], 0.311 µM in experiment [9] and 0.449 µM in experiment [10]. Also, the TGI was > 100 µM in experiment [1]; 0.89 µM in experiment [2]; 7.01 µM in [3]; 0.423 µM in [4]; 0.457 µM in experiment [5]; 2.78 µM in experiment [6]. Moreover, the TGI in experiment [7] is > 83.3 µM; in [8], > 100 µM; in experiment [9], 3.16 µM; in experiment [10], 5.47 µM.

With `NC(=O)C1c2ccccc2C=Cc2ccccc21`, the GI50 in experiment [1] is > 100 µM; in experiment [2] it was 51.6 µM; in experiment [3], > 100 µM; in experiment [4], > 100 µM; in [5] it was > 100 µM; in experiment [6] it was > 100 µM. The GI50 in [7], in [8], in experiment [9] and in experiment [10] was > 100 µM in each case. Besides, the TGI in [1], in experiment [2], in experiment [3], in experiment [4], in experiment [5] and in experiment [6] was > 100 µM throughout. The TGI in experiment [7], in experiment [8], in experiment [9] and in experiment [10] was > 100 µM throughout.

Consider `Cc1ncc(C(=O)Nc2ccc(CN3CCN(C)CC3)c(C(F)(F)F)c2)cc1C#Cc1cnc(N)c2cnccc12`, for which the GI50 in [1] was 0.0636 µM; in experiment [2] it was 0.0299 µM; in experiment [3] it was 0.0294 µM; in [4], 0.0335 µM; in [5], 1.18 µM; in experiment [6], 0.0447 µM. Moreover, the GI50 in [7] is 0.225 µM; in experiment [8], 0.0791 µM; in experiment [9], 0.0456 µM; in experiment [10], 0.132 µM. The TGI in experiment [1] came out at 6.91 µM; in experiment [2] it was 0.258 µM; in experiment [3], 0.282 µM; in experiment [4] it was 0.158 µM; in experiment [5], 3.69 µM; in experiment [6], 4.25 µM. Also, the TGI in experiment [7] was 16.3 µM; in experiment [8], 11.7 µM; in experiment [9], 1.92 µM; in experiment [10], 1.93 µM.
